Source: patent US12150995B2, “IRAK degraders and uses thereof” (Kymera Therapeutics, Inc., priority 2020, dated 2024)

Molecular target: T1, IRAK4 (Homo sapiens, UniProt Q9NWZ3)
T1 construct: endogenous in cells; host or cells: OCI-LY10
T1 sequence (Q9NWZ3 1-460): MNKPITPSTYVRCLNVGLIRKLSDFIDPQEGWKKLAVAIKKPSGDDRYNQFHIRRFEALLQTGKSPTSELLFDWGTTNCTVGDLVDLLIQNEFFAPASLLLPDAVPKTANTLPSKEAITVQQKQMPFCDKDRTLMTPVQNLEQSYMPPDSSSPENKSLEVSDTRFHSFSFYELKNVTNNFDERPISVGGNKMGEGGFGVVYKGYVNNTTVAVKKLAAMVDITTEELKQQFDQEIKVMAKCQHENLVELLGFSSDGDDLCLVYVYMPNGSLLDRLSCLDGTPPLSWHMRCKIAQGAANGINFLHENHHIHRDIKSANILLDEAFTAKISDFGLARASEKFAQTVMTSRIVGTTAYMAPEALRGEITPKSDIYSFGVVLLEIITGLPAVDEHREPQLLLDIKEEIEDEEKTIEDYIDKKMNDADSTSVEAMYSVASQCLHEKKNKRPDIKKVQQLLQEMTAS
Assay: IRAK4 MSD Degradation in OCI-LY10
Type: cell-based
Conditions: OCI-LY10 cells, Meso Scale Discovery, incubated 4 to 24 hours
Outline: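 OCI-LY10 cells (300,000/well) exposed to an 8-point 1:3 series from a top concentration of 1 to 10 μM for 4 to 24 h at 37 °C. IRAK4 remaining in RIPA lysates quantified by MSD sandwich immunoassay; DC50 from a three-parameter logistic fit.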

Compound | DC50
COc1cc2nn([C@H]3CC[C@H](CN4CCC(c5c(OC)ccc6c5n(C)c(=O)n6C5CCC(=O)NC5=O)CC4)CC3)cc2cc1NC(=O)c1cncc(C#N)c1 (stereo partly drawn) [I-195] | 0.01 to 0.05 µM
Cn1c(=O)n(C2CCC(=O)NC2=O)c2ccc(Cl)c(C3CCN(C[C@H]4C[C@H](n5cc6cc(NC(=O)c7cccc(C(F)(F)F)n7)ncc6n5)C4)CC3)c21 (stereo partly drawn) [I-149] | 0.1 to 0.2 µM
COc1cc2nn([C@H]3CC[C@H](CN4CCC5(CC4)CC(CCNc4cccc6c4C(=O)N(C4CCC(=O)NC4=O)C6=O)C5)CC3)cc2cc1NC(=O)c1cccc(C(F)(F)F)n1 (stereo partly drawn) [I-9] | 0.05 to 0.1 µM
COc1cc2nn([C@H]3CC[C@H](CN4CCC5(CC4)CC(Nc4cccc6c4C(=O)N(C4CCC(=O)NC4=O)C6=O)C5)CC3)cc2cc1NC(=O)c1cnn2cccnc12 (stereo partly drawn) [I-13] | < 0.01 µM
Cn1c(=O)n(C2CCC(=O)NC2=O)c2cccc(C3CCN(C[C@H]4CC[C@H](n5cc6cc(NC(=O)c7cncc(C(F)(F)F)n7)c(F)cc6n5)CC4)CC3)c21 (stereo partly drawn) [I-45] | < 0.01 µM
COc1cc2nn([C@H]3CC[C@H](CN4CCC(c5cccc6c5n(C)c(=O)n6C5CCC(=O)NC5=O)CC4)CC3)cc2cc1NC(=O)c1cnc(OC)c(Cl)c1 (stereo partly drawn) [I-193] | > 0.2 µM
O=C1CCN(c2cncc3c(C4CCN(C[C@H]5CC[C@H](c6nc7ccc(NC(=O)c8cccc(C(F)(F)F)n8)cc7s6)CC5)CC4)cccc23)C(=O)N1 [I-201] | > 0.2 µM
CC(C)(O)c1cc2nn([C@H]3CC[C@H](CN4CCC(c5ccc6c(N7CCC(=O)NC7=O)cncc6c5)CC4)CC3)cc2cc1NC(=O)c1cccc(C(F)(F)F)n1 [I-64] | < 0.01 µM
COc1cc2c(cc1NC(=O)c1cccc(C(F)(F)F)n1)cc([C@H]1CC[C@H](CN(C)C3CCN(c4cccc5c4n(C)c(=O)n5C4CCC(=O)NC4=O)CC3)CC1)n2C (stereo partly drawn) [I-41] | > 0.2 µM
CC(C)Nc1cc(-n2ccc3cc(C#N)cnc32)ncc1C(=O)NC[C@H]1CC[C@H](CN(C)C2CCN(c3cccc4c3n(C)c(=O)n4C3CCC(=O)NC3=O)CC2)CC1 (stereo partly drawn) [I-105] | 0.05 to 0.1 µM
COc1cc2nn(CCN(C)C3CCN(c4cccc5c4n(C)c(=O)n5C4CCC(=O)NC4=O)CC3)cc2cc1NC(=O)c1cccc(C(F)(F)F)n1 (stereo not drawn) [I-20, N-[2-[2-[[1-[1-(2,6-dioxo-3-piperidyl)-3-methyl-2-oxo-benzimidazol-4-yl]-4-piperidyl]-methyl-amino]ethyl]-6-methoxy-indazol-5-yl]-6-(trifluoromethyl)pyridine-2-carboxamide] | > 0.2 µM
COc1cc2c(cc1NC(=O)c1cccc(C(F)(F)F)n1)cc([C@H]1CC[C@H](CN3CCC(c4cccc5c4n(C)c(=O)n5C4CCC(=O)NC4=O)CC3)CC1)n2C (stereo partly drawn) [I-43] | > 0.2 µM
COc1cc2nn([C@H]3CC[C@H](CN4CCC5(CC4)CCN(c4cccc6c4n(C)c(=O)n6C4CCC(=O)NC4=O)CC5)CC3)cc2cc1NC(=O)c1cncc(C#N)c1 (stereo partly drawn) [I-207] | < 0.01 µM
COc1cc2nn([C@H]3CC[C@H](CN4CCC5(CC4)CC(CNc4cccc6c4C(=O)N(C4CCC(=O)NC4=O)C6=O)C5)CC3)cc2cc1NC(=O)c1cccc(C(C)(F)F)n1 (stereo partly drawn) [I-4] | 0.05 to 0.1 µM
Cn1c(=O)n(C2CCC(=O)NC2=O)c2cccc(C3CCN(C[C@H]4CC[C@H](n5cc6cc(NC(=O)n7ccc8cc(C#N)cnc87)ccc6n5)CC4)CC3)c21 (stereo partly drawn) [I-129] | < 0.01 µM
COc1cc2nn([C@H]3CC[C@H](CN4CCC(c5c(Cl)ccc6c5n(C)c(=O)n6C5CCC(=O)NC5=O)CC4)CC3)cc2cc1NC(=O)c1cccc(C(F)(F)F)n1 (stereo partly drawn) [I-37] | < 0.01 µM
COc1cc2nn([C@H]3CC[C@H](CN4CCC(c5cc(Cl)cc6c5n(C)c(=O)n6C5CCC(=O)NC5=O)CC4)CC3)cc2cc1NC(=O)c1cccc(C(F)(F)F)n1 (stereo partly drawn) [I-36] | < 0.01 µM
CC(C)Nc1cc(-n2ccc3cc(C#N)cnc32)ncc1C(=O)N[C@H]1CC[C@H](CN2CCC(c3cccc4c3n(C)c(=O)n4C3CCC(=O)NC3=O)CC2)CC1 (stereo partly drawn) [I-114] | < 0.01 µM
COc1cc2nn([C@H]3CC[C@H](CN4CCC(c5cccc6c5n(C)c(=O)n6C5CCC(=O)NC5=O)CC4)CC3)cc2cc1NC(=O)c1cncc(C#N)c1 (stereo partly drawn) [I-77] | < 0.01 µM
COc1cc2nn([C@H]3CC[C@H](CN4CCC(c5ccc6c(c5)n(C)c(=O)n6C5CCC(=O)NC5=O)CC4)CC3)cc2cc1NC(=O)c1cncc(C#N)c1 (stereo partly drawn) [I-169] | > 0.2 µM
Cc1nc(C(=O)Nc2cc3cn([C@H]4CC[C@H](CN5CCC(c6cccc7c6n(C)c(=O)n7C6CCC(=O)N(C)C6=O)CC5)CC4)nc3cc2C(C)(C)O)co1 (stereo partly drawn) [I-60] | > 0.2 µM
COc1cc2nn([C@H]3CC[C@H](CN4CCC(c5c(C)ccc6c5n(C)c(=O)n6C5CCC(=O)NC5=O)CC4)CC3)cc2cc1NC(=O)c1cccc(C(F)(F)F)n1 (stereo partly drawn) [I-39] | < 0.01 µM
COc1cc2nn([C@H]3CC[C@H](CN4CCC(c5cccc6c5n(C)c(=O)n6C5CCC(=O)NC5=O)CC4)CC3)cc2cc1NC(=O)c1cc(F)cc(C(F)(F)F)c1 (stereo partly drawn) [I-132] | < 0.01 µM
COc1cc2nn([C@H]3C[C@H](CN4CCC(c5c(Cl)ccc6c5n(C)c(=O)n6C5CCC(=O)NC5=O)CC4)C3)cc2cc1NC(=O)c1cccc(C(F)(F)F)n1 (stereo partly drawn) [I-87, N-[2-[3-[[4-[5-chloro-1-(2,6-dioxo-3-piperidyl)-3-methyl-2-oxo-benzimidazol-4-yl]-1-piperidyl]methyl]cyclobutyl]-6-methoxy-indazol-5-yl]-6-(trifluoromethyl)pyridine-2-carboxamide] | < 0.01 µM

Next, values leading:

DC50 | Compound
< 0.01 µM | COc1cc2nn([C@H]3CC[C@H](CN4C5CC4CN(c4cccc6c(N7CCC(=O)NC7=O)cncc46)C5)CC3)cc2cc1NC(=O)c1cccc(C(F)(F)F)n1 [I-220]
< 0.01 µM | Cn1c(=O)n(C2CCC(=O)NC2=O)c2cccc(C3CCN(C[C@H]4CC[C@H](c5cc6cc(NC(=O)c7cccc(C(F)(F)F)n7)ccn6n5)CC4)CC3)c21 (stereo partly drawn) [I-242]
> 0.2 µM | CC(C)Nc1cc(-n2ccc3cc(C(F)(F)F)cnc32)ncc1C(=O)N[C@H]1CC[C@H](CN2CCN(c3ccc4c(c3)n(C)c(=O)n4C3CCC(=O)NC3=O)CC2)CC1 (stereo partly drawn) [I-374]
> 0.2 µM | CN(CCCNc1cccc2c1C(=O)N(C1CCC(=O)NC1=O)C2=O)C[C@H]1CC[C@H](c2nc3cc(C(C)(C)O)c(NC(=O)c4cncc(Cl)c4)cc3s2)CC1 (stereo partly drawn) [I-476]
0.05 to 0.1 µM | CC(C)(O)c1cc2nc([C@H]3CC[C@H](C(=O)N4CC5(CC(CCNc6cccc7c6C(=O)N(C6CCC(=O)NC6=O)C7=O)C5)C4)CC3)sc2cc1NC(=O)c1cccc(C#N)n1 (stereo partly drawn) [I-436]
0.01 to 0.05 µM | Cc1cccc(C(=O)Nc2cc3sc([C@H]4CC[C@H](CN5C[C@@H]6C[C@H]5CN6CCCNc5cccc6c5C(=O)N(C5CCC(=O)NC5=O)C6=O)CC4)nc3cc2C(C)(C)O)n1 (stereo partly drawn) [I-439]
0.01 to 0.05 µM | Cn1c(=O)n(C2CCC(=O)NC2=O)c2cccc(N3CCN(C[C@H]4CC[C@H](n5cc6cc(NC(=O)c7cccc(C(F)(F)F)n7)c(N7CCCC7)cc6n5)CC4)CC3)c21 (stereo partly drawn) [I-392]
< 0.01 µM | COc1cc2nn([C@H]3CC[C@H](CN4CCN(c5cccc6c5n(C)c(=O)n6C5CCC(=O)NC5=O)CC4)CC3)cc2cc1NC(=O)c1cncc(C(F)(F)F)n1 (stereo partly drawn) [I-297]
0.01 to 0.05 µM | COc1cc2nn([C@H]3CC[C@H](CN4CCC(O[C@H]5C[C@@H](c6cccc7c6n(C)c(=O)n7C6CCC(=O)NC6=O)C5)CC4)CC3)cc2cc1NC(=O)c1cccc(C(F)(F)F)n1 (stereo partly drawn) [I-385]
0.01 to 0.05 µM | COc1cc2nc([C@H]3CC[C@H](CN(C)CCCCNc4cccc5c4C(=O)N(C4CCC(=O)NC4=O)C5=O)CC3)sc2cc1NC(=O)c1cccc(C#N)n1 (stereo partly drawn) [I-433]
< 0.01 µM | CC(C)Nc1cc(-n2ccc3cc(C#N)cnc32)ncc1C(=O)N[C@H]1CC[C@H](CN2CCN(c3cccc4c(N5CCC(=O)NC5=O)cncc34)CC2)CC1 [I-372]
< 0.01 µM | COc1cc2nn([C@H]3CC[C@H](CN4CCN(c5ccc(F)c6c(N7CCC(=O)NC7=O)cncc56)CC4)CC3)cc2cc1NC(=O)c1cccc(C(F)(F)F)n1 [I-311]
0.1 to 0.2 µM | CC(C)Nc1cc(-n2ccc3cc(C(F)(F)F)cnc32)ncc1C(=O)N[C@H]1CC[C@H](CN2CCN(c3cccc4c3n(C)c(=O)n4C3CCC(=O)NC3=O)CC2)CC1 (stereo partly drawn) [I-369]
> 0.2 µM | COc1cc2nn([C@H]3CC[C@H](CN4CCN(c5cccc6c(N7CCC(=O)N(C)C7=O)cncc56)CC4)CC3)cc2cc1NC(=O)c1cccc(C(F)(F)F)n1 [I-330]
> 0.2 µM | O=C1CCN(c2cncc3cc(C4CCN(C[C@H]5CC[C@H](n6cc7cc(NC(=O)c8cccc(C(F)(F)F)n8)ncc7n6)CC5)CC4)ccc23)C(=O)N1 [I-318]
< 0.01 µM | N#Cc1cc2nn([C@H]3CC[C@H](CN4CCC(c5cccc6c(N7CCC(=O)NC7=O)cncc56)CC4)CC3)cc2cc1NC(=O)c1cccc(C(F)(F)F)n1 [I-213]
0.01 to 0.05 µM | COc1cc2nn([C@H]3CC[C@H](CN4CCN(c5cccc6c(N7CCC(=O)NC7=O)cncc56)CC4)CC3)cc2cc1NC(=O)c1ccnc(C(F)(F)F)n1 [I-300]
< 0.01 µM | COc1cc(NC(=O)c2cccc(C(F)(F)F)n2)cc2cn([C@H]3CC[C@H](CN4CCC(c5cccc6c(N7CCC(=O)NC7=O)cncc56)CC4)CC3)nc12 [I-221]
0.01 to 0.05 µM | Cc1cccc(C(=O)Nc2cc3sc([C@H]4CC[C@H](CN5CCN(CCNc6cccc7c6C(=O)N(C6CCC(=O)NC6=O)C7=O)[C@@H](C)C5)CC4)nc3cc2C(C)(C)O)n1 (stereo partly drawn) [I-467]
> 0.2 µM | O=C1CCN(c2cncc3cc(C4CCN(C[C@H]5CC[C@H](c6nc7cnc(NC(=O)c8cccc(C(F)(F)F)n8)cc7s6)CC5)CC4)ccc23)C(=O)N1 [I-241]
> 0.2 µM | Cn1c(=O)n(C2CCC(=O)NC2=O)c2cccc(C3CCN(C[C@H]4CC[C@H](n5cc6cc(NC(=O)c7ncc(Cl)s7)ccc6n5)CC4)CC3)c21 (stereo partly drawn) [I-247]
